Source: patent US10159256B2, “Organic pruning wound composition” (The Regents of the University of California, priority 2014, dated 2018)

Experiments:
Test in all cases: Micro- and macronutrients tested against trunk disease fungi
Conditions in all cases: among all micro- and macronutrients tested
Pm. Alephilum = tested on: Pm. Alephilum
Text: (§1) However, these products are not registered as organic products, leaving organic growers with no alternatives for controlling trunk diseases.

Pa. chlamydospora = tested on: Pa. chlamydospora
Text: as §1

D. seriata = tested on: D. seriata
Text: as §1

E. lata = tested on: E. lata
Text: as §1

P. viticola = tested on: P. viticola
Text: as §1

[B] [boron (B), boron]
most effective: effectiveness against Pm. Alephilum (Pm. Alephilum) | effectiveness against Pa. chlamydospora (Pa. chlamydospora) | effectiveness against D. seriata (D. seriata) | effectiveness against E. lata (E. lata) | effectiveness against P. viticola (P. viticola)

[Zn] [zinc (Zn), zinc]
most effective: effectiveness against Pm. Alephilum (Pm. Alephilum) | effectiveness against Pa. chlamydospora (Pa. chlamydospora) | effectiveness against D. seriata (D. seriata) | effectiveness against E. lata (E. lata) | effectiveness against P. viticola (P. viticola)
